Experimental data from patent US20060062729A1, “Enhanced ligand binding to neurotensin receptors” (priority 2004, published 2006).
“And” between values parts separate entries of the source, which are not always exact repeats. Equal entries are not always repeated. Where two headings read alike, the source gives them in different places. Non-standard residues stand in square brackets, D forms with d. Residues, ends and D or L forms follow the SMILES beside them. Tyr(3-I) = N[C@@H](Cc1ccc(O)c(I)c1)C(=O)O; pGlu = O=C1CC[C@@H](C(=O)O)N1; Nle = CCCC[C@H](N)C(=O)O

Key:
NTR1 [1] = biological target: T1, NTR1 (Homo sapiens, UniProt P30989); assay: ^125I-NT binding to PC3 cells; conditions: for maximal increase in NT binding to PC3 cells: as much as / up to, dose-response
T1 sequence (P30989 whole entry): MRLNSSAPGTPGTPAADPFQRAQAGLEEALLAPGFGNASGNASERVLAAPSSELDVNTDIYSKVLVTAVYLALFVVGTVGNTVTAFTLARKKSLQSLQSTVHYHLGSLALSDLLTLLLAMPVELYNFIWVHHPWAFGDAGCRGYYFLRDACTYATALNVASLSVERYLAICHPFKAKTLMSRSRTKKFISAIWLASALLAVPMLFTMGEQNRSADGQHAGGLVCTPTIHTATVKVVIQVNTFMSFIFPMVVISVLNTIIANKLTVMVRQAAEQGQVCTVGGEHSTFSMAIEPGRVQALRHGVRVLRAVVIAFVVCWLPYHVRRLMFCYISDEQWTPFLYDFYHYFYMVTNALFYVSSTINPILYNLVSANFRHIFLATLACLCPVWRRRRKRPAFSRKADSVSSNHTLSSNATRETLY

NTR1 [2] = biological target: T1, NTR1; assay: NT-induced IP formation in PC3 cells; assay type: cell-based; parameters: Ab-NTR1 detected two major bands in extracts of PC3 cells, the parent protein of 50 kDa; endogenous in cells; host or cells: PC3 cells (ATCC)
bombesin receptor = biological target: T2, bombesin receptor (Homo sapiens, UniProt P30550); assay: ^125I-[Nle^14]-bombesin binding to PC3 cells; conditions: for Specific Binding (% control) of ^125I-[Nle14]-bombesin: 37° C.
T2 construct: endogenous in cells; host or cells: PC3 cells (ATCC)
T2 sequence (P30550 whole entry): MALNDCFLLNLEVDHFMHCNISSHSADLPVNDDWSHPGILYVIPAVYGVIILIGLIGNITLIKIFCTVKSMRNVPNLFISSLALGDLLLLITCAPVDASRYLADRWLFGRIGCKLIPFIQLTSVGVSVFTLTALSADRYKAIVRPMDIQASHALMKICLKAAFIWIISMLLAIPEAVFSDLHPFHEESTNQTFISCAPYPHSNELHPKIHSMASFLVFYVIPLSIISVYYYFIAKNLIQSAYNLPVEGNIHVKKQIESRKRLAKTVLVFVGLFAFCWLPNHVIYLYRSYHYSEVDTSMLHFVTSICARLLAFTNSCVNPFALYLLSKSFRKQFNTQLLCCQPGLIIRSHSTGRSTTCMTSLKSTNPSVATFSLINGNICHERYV

NTR1 [3] = biological target: T1, NTR1; assay: ^125I-NT binding to isolated PC3 cell membranes; parameters: Ab-NTR1 detected two major bands in extracts of PC3 cells, the parent protein of 50 kDa; endogenous in cells; host or cells: PC3 cells (ATCC)
PC3 cells = assay: Ionomycin-stimulated IP formation in PC3 cells; assay type: cell-based
[4] = general reducing agents and antioxidants
[5] = read-out: NT Binding EC50, [agent] giving 75% increase in NT binding
[6] = 6 μM enzyme inhibitor, PC3 cells
[7] = 20 μM enzyme inhibitor, PC3 cells
[8] = 60 μM enzyme inhibitor, PC3 cells
[9] = vitamin-like antioxidants at 20-180 μM, n=3

O[C@H](CS)[C@H](O)CS (racemic) [DTT, dithiothreitol]
effect on NT binding (NTR1 [1]; [4]): not much affected

Oc1cc(O)c2c(c1)O[C@H](c1ccc(O)c(O)c1)[C@@H](O)C2 [(+)-catechin]
effect on NT binding (NTR1 [1]; used at 10-100 μM, n=3): without effect

CC(=O)OCOC(=O)CN(CC(=O)OCOC(C)=O)c1ccccc1OCCOc1ccccc1N(CC(=O)OCOC(C)=O)CC(=O)OCOC(C)=O [BAPTA-AM, 1,2-bis(o-aminophenoxy)ethane-N,N,N′,N′-tetraacetic acid tetra(acetoxymethyl) ester]
effect on NT binding (NTR1 [1]; chelation of intracellular Ca^2+, 50 μM BAPTA-AM): nor was NT binding altered

COc1ccc(O)c(C(C)(C)C)c1 [BHA, butylated hydroxy anisole]
EC50 (NTR1 [1]; [5]): 110 µM

COC(=O)C1=C(C)NC(C)=C([N+](=O)[O-])C1c1ccccc1C(F)(F)F (stereo not drawn) [BayK-8644]
EC50 (NTR1 [1]; [5]): 16 µM

O=C(/C=C/c1ccc(O)c(O)c1)OCCc1ccccc1 [CAPE, caffeic acid phenethyl ester]
EC50 (NTR1 [1]): 34 µM | maximal increase in NT binding to PC3 cells (NTR1 [1]): ≤ 2.8 fold | IC50 (NTR1 [2]): 18 µM

N#CC(C#N)=NNc1cccc(Cl)c1 [CCCP, Carbonyl cyanide 3-chlorophenylhydrozone]
EC50 (NTR1 [1]): 23 µM

COc1ccc([C@@H]2Sc3ccccc3N(CCN(C)C)C(=O)[C@@H]2OC(C)=O)cc1 [Diltiazem, diltiazem]
maximal increase in NT binding to PC3 cells (NTR1 [1]): ≤ 1.4 fold

c1ccc2c(c1)[I+]c1ccccc1-2 [Diphenylene iodonium]
EC50 (NTR1 [1]): 61 µM | IC50 (NTR1 [2]; [agent] giving 50% decrease in IP formation, read-out: IP Formation IC50): 35 µM

O=C(O)CN(CCOCCOCCN(CC(=O)O)CC(=O)O)CC(=O)O [EGTA, ethylene glycol tetra-acetic acid]
increase in NT binding (NTR1 [1]): 38±6 % increase | effect on NT-induced IP formation (NTR1 [2]; Ca^2+-chelator added): inhibited

COC(=O)c1c(C)[nH]c(C)c1C(=O)c1ccccc1Cc1ccccc1 [FPL-64176]
EC50 (NTR1 [1]; [5]): 29 µM

Cc1cc2c(C(C)C)c(O)c(O)c(C=O)c2c(O)c1-c1c(C)cc2c(C(C)C)c(O)c(O)c(C=O)c2c1O [Gossypol, gossypol]
NT Binding Efficacy % increase (NTR1 [1]; LOX blockers): 170 % increase | IC50 (NTR1 [2]; [agent] that decreased IP formation by 40%, read-out: IP Formation IC50): 20 µM

CCCc1c(OCCCCc2nnn[nH]2)ccc(C(C)=O)c1O [LY171883]
NT Binding Efficacy % increase (NTR1 [1]; LOX blockers): 157 % increase | EC50 (NTR1 [1]; read-out: NT Binding EC50, [agent] giving 100% increase in NT binding): 34 µM

CC(=O)N[C@@H](CS)C(=O)O [N-acetyl cysteine]
effect on NT binding (NTR1 [1]; used at 1-3 mM, n=3): without effect

CC(Cc1ccc(O)c(O)c1)C(C)Cc1ccc(O)c(O)c1 (stereo not drawn) [NDGA, Nordihydroguaiaretic acid]
Specific Binding (% control) of ^125I-[Nle14]-bombesin (bombesin receptor; 12 μM LOX blocker): 110 ± 3 % control | Specific Binding (% control) of ^125I-[Nle14]-bombesin (bombesin receptor; 60 μM LOX blocker): 127 ± 4 % control | Specific NT-Binding (% control) (NTR1 [3]; 10 μM LOX pathway blocker): 110 ± 5 % control | Specific NT-Binding (% control) (NTR1 [3]; 25 μM LOX pathway blocker): 121 ± 8 % control | Specific NT-Binding (% control) (NTR1 [3]; 75 μM LOX pathway blocker): 132 ± 10 % control

CC1=C(/C=C/C(C)=C/C=C/C(C)=C/C(=O)O)C(C)(C)CCC1 [Retinoic Acid, retinoic acid]
Specific NT-Binding (% control) (NTR1 [3]; 10 μM LOX pathway blocker): 102 ± 3 % control | Specific NT-Binding (% control) (NTR1 [3]; 25 μM LOX pathway blocker): 115 ± 4 % control | Specific NT-Binding (% control) (NTR1 [3]; 75 μM LOX pathway blocker): 142 ± 8 % control

CCCCCC(O)c1cccc(OCc2ccc3ccccc3n2)c1 (stereo not drawn) [Rev5901]
NT Binding Efficacy % increase (NTR1 [1]; LOX blockers): 160 % increase | maximal increase in NT binding to PC3 cells (NTR1 [1]): ≤ 2.4 fold | Specific Binding (% control) of ^125I-[Nle14]-bombesin (bombesin receptor; 12 μM LOX blocker): 107 ± 3 % control | Specific Binding (% control) of ^125I-[Nle14]-bombesin (bombesin receptor; 60 μM LOX blocker): 119 ± 3 % control | Specific NT-Binding (% control) (NTR1 [3]; 10 μM LOX pathway blocker): 101 ± 4 % control | Specific NT-Binding (% control) (NTR1 [3]; 25 μM LOX pathway blocker): 113 ± 5 % control | Specific NT-Binding (% control) (NTR1 [3]; 75 μM LOX pathway blocker): 110 ± 5 % control

C[S+]([O-])c1ccc(-c2nc(-c3ccncc3)c(-c3ccc(F)cc3)[nH]2)cc1 (stereo not drawn) [SB203580]
Specific NT-Binding (% control) (NTR1 [1]; [6]): 108 ± 8 % control | Specific NT-Binding (% control) (NTR1 [1]; [7]): 116 ± 7 % control | Specific NT-Binding (% control) (NTR1 [1]; [8]): 125 ± 9 % control

COc1ccc(CCCOC(Cn2ccnc2)c2ccc(OC)cc2)cc1 (stereo not drawn) [SKF-96365]
Specific Binding (% control) of ^125I-[Nle^14]-bombesin (bombesin receptor; 12 μM agent): 99 ± 2 % control | Specific Binding (% control) of ^125I-[Nle^14]-bombesin (bombesin receptor; 60 μM agent): 106 ± 4 % control

N#CC(=C(/N)Sc1ccccc1N)/C(C#N)=C(\N)Sc1ccccc1N [U0126]
Specific NT-Binding (% control) (NTR1 [1]): 118 ± 6 % control and 108 ± 6 % control and 120 ± 9 % control

COc1ccc(CCN(C)CCCC(C#N)(c2ccc(OC)c(OC)c2)C(C)C)cc1OC (stereo not drawn) [Verapamil, verapamil]
Specific Binding (% control) of ^125I-[Nle^14]-bombesin (bombesin receptor; 12 μM agent): 104 ± 4 % control | Specific Binding (% control) of ^125I-[Nle^14]-bombesin (bombesin receptor; 60 μM agent): 104 ± 4 % control

CCCC[C@H](NC(=O)[C@H](CC(C)C)NC(=O)[C@H](Cc1c[nH]cn1)NC(=O)CNC(=O)[C@@H](NC(=O)[C@H](C)NC(=O)[C@H](Cc1c[nH]c2ccccc12)NC(=O)[C@H](CCC(N)=O)NC(=O)[C@H](CC(N)=O)NC(=O)CNC(=O)[C@H](Cc1ccc(O)c(I)c1)NC(=O)[C@H](CCCNC(=N)N)NC(=O)[C@H](CCC(N)=O)NC(=O)[C@@H]1CCC(=O)N1)C(C)C)C(N)=O [^125I-[Nle^14]-bombesin] ([pGlu]QR[Tyr(3-I)]GNQWAVGHL[Nle]-NH2; C-terminus assumed)
Specific Binding (% of total) (bombesin receptor; 10^5 cpm ^125I-ligand): 95 % of total | Bmax (bombesin receptor; Scatchard analysis): 1016 ± 64 fmol/mg

O=C1O[C@H]([C@@H](O)CO)C(O)=C1O [ascorbic acid]
effect on NT binding (NTR1 [1]; [4]): not much affected | effect on NT binding (NTR1 [1]; [9]): ineffective

O=c1oc2c(O)c(O)cc3c(=O)oc4c(O)c(O)cc1c4c23 [ellagic acid]
effect on NT binding (NTR1 [1]; used at 10-100 μM, n=3): without effect

Fc1ccc(C(c2ccc(F)cc2)N2CCN(C/C=C/c3ccccc3)CC2)cc1 [flunarizine]
effect on NT binding (NTR1 [1]; less specific CCBs): only modest effects

N[C@@H](CCC(=O)N[C@@H](CS)C(=O)NCC(=O)O)C(=O)O [glutathione]
effect on NT binding (NTR1 [1]; used at 1-3 mM, n=3): without effect

COc1ccc2c(c1)c(CC(=O)O)c(C)n2C(=O)c1ccc(Cl)cc1 [indomethacin]
Specific NT-Binding (% control) (NTR1 [1]; [6]): 109 ± 4 % control | Specific NT-Binding (% control) (NTR1 [1]; [7]): 95 ± 6 % control | Specific NT-Binding (% control) (NTR1 [1]; [8]): 113 ± 7 % control

C[C@H](CCC(=O)O)C[C@H](C)C[C@H](C)C(=O)/C=C(\O)[C@H](C)C[C@H](C)C/C=C/[C@@H](C)[C@@H](O)[C@@H](C)[C@@H](O)C[C@@H]1CC[C@@](C)([C@H]2CC[C@@](C)([C@@H](C)O)O2)O1 [ionomycin]
reversal of NIF enhancement of NT binding (NTR1 [1]; 20 μM ionomycin): not reversed | IP formation (% control) (PC3 cells; 2 μM ionomycin): 139±6% | IP formation (% control) (PC3 cells; 10 μM ionomycin): 157±5 % control | IP formation (% control) (PC3 cells; 20 μM ionomycin): 324±14% | IP formation (% control) (PC3 cells; 25 μM ionomycin): 322±11 % control | share of the NT response reproduced (PC3 cells; IP formation): ~63%

Clc1ccc(COC(Cn2ccnc2)c2ccc(Cl)cc2Cl)c(Cl)c1 (stereo not drawn) [miconazole]
NT Binding Efficacy % increase (NTR1 [1]; maximal % increase in NT binding observed for each agent): 75 % increase | IP Formation Efficacy (% decrease) (NTR1 [2]; maximal % decrease in NT-induced IP formation): 54 % decrease

Cc1ncc(CO)c(CO)c1O [pyridoxine]
effect on NT binding (NTR1 [1]; [4]): not much affected | effect on NT binding (NTR1 [1]; [9]): ineffective

O=c1c(O)c(-c2ccc(O)c(O)c2)oc2cc(O)cc(O)c12 [quercetin]
effect on NT binding (figure legend) (NTR1 [1]; FIG. 21A): enhanced NT-binding to NTR | effect on NT-induced IP formation (figure legend) (NTR1 [2]; FIG. 21B): inhibited NT-induced IP formation

Cc1cc2nc3c(=O)[nH]c(=O)nc-3n(C[C@H](O)[C@H](O)[C@H](O)CO)c2cc1C [riboflavin]
effect on NT binding (NTR1 [1]; [4]): not much affected | effect on NT binding (NTR1 [1]; [9]): ineffective

C=C(C)[C@H]1Cc2c(ccc3c2O[C@@H]2COc4cc(OC)c(OC)cc4[C@@H]2C3=O)O1 [rotenone]
EC50 (NTR1 [1]): 38 µM

[BH4-].[Na+] [sodium borohydride]
effect on NT binding (NTR1 [1]; [4]): not much affected | effect on NT binding (NTR1 [1]; used at 1-3 mM, n=3): without effect

Cc1ncc(C[n+]2csc(CCO)c2C)c(N)n1 [thiamine]
effect on NT binding (NTR1 [1]; [4]): not much affected | effect on NT binding (NTR1 [1]; [9]): ineffective

CN1CCN(CCCN2c3ccccc3Sc3ccc(C(F)(F)F)cc32)CC1 [trifluoperazine]
effect on NT binding (NTR1 [1]; less specific CCBs): only modest effects

Cc1c(C)c2c(c(C)c1O)CCC(C)(C(=O)O)O2 (stereo not drawn) [trolox]
effect on NT binding (NTR1 [1]; [4]): not much affected | effect on NT binding (NTR1 [1]; used at 10-100 μM, n=3): without effect

Cc1c(C)c2c(c(C)c1O)CC[C@@](C)(CCC[C@H](C)CCC[C@H](C)CCCC(C)C)O2 [α-tocoferol]
effect on NT binding (NTR1 [1]; [9]): ineffective

CC1=C(/C=C/C(C)=C/C=C/C(C)=C/C=C/C=C(C)/C=C/C=C(C)/C=C/C2=C(C)CCCC2(C)C)C(C)(C)CCC1 [β-carotene]
effect on NT binding (NTR1 [1]; [9]): ineffective

(−)-epigallocatechin gallate
effect on NT binding (NTR1 [1]; used at 10-100 μM, n=3): without effect
